Where “and” joins values, the source holds several entries; their conditions need not be identical. Equal values may be shown once. Non-standard residues stand in square brackets, D forms with d. Residues, ends and D or L forms follow the SMILES beside them.
System: malnourished subjects with CKD
Assay: Phase II CKD: bioimpedance
Type: in vivo, human
Settings: for Basal metabolic rate: median / Body cell mass: median / Extracellular cell mass: median / Extracellular water: median / Intracellular water: median / Total body water: median / Fat free mass (%): median / Fat free mass (kg): median / Fat mass (%): median / Fat mass (kg): median: ITT; for Fat free mass (%): median / Fat free mass (kg): median / Fat mass (%): median / Fat mass (kg): median: bioimpedance
Experimental: Height (cm) was measured only at the screening visit. Anthrompometry was measured at every visit from baseline to follow-up. Anthropometric measurements included weight, skinfold thicknesses and arm circumference. Weight (kg) was measured using a high performance scale. Subjects were asked to stand on the scale with minimal clothing, no shoes, and with even weight on both feet. Skinfold thickness (mm) was measured by using Harpenden Skinfold Callipers at 4 sites: biceps, triceps, suprailiacal and subscapular. Arm circumference (cm) was measured using a tape measure that is flexible, inelastic and metric. The site measured was marked, and the tape was not to be too tight or too loose, and to lie flat on the skin, and be horizontal. Bioimpedance measurements were made to measure body composition at every visit from baseline to Day 28. The bioimpedance scale (RJL Systems) was used. Resistance, reactance and the phase angle were recorded.
Bioelectrical impedance (BIA) was used to evaluate body water content (total body water %, extracellular water and intracellular water), fat free mass and fat mass using Maltron BioScan 916 and BIA 450 apparatus from Biodynamics Corp. The method is fast, precise and noninvasive.
Bioimpedance measurements were done at every visit from baseline (day 0) on days 7, 14, 21 to 28. Weight and FFM (kg) were measured and FM (kg, %) and FFM (%) were derived. There was an increase from baseline in median FFM (3.3 kg) and decrease in median FM (1.8 kg) in all except one (11/12) patients in the GHRH(1-29)NH2 synthetic analog group on day 28 while there was a decrease in median FFM (0.8 kg) and increase in median FM (1.3 kg) in the placebo arm.

Compound: CC[C@H](C)[C@H](NC(=O)[C@H](C)NC(=O)[C@H](CC(=O)O)NC(=O)[C@@H](C)NC(=O)[C@@H](N)Cc1ccc(O)cc1)C(=O)N[C@@H](Cc1ccccc1)C(=O)N[C@H](C(=O)N[C@@H](CC(N)=O)C(=O)N[C@@H](CO)C(=O)N[C@H](Cc1ccc(O)cc1)C(=O)N[C@@H](CCCNC(=N)N)C(=O)N[C@@H](CCCCN)C(=O)N[C@H](C(=O)N[C@@H](CC(C)C)C(=O)N[C@H](C)C(=O)N[C@@H](CCC(N)=O)C(=O)N[C@@H](CC(C)C)C(=O)N[C@@H](CO)C(=O)N[C@@H](C)C(=O)N[C@@H](CCCNC(=N)N)C(=O)N[C@@H](CCCCN)C(=O)N[C@@H](CCCCN)C(=O)N[C@@H](CC(C)C)C(=O)N[C@@H](CCC(N)=O)C(=O)N[C@@H](CC(=O)O)C(=O)N[C@H](C(=O)N[C@@H](CCSC)C(=O)N[C@@H](CO)C(=O)N[C@@H](CCCNC(=N)N)C(N)=O)[C@@H](C)CC)C(C)C)[C@@H](C)O [GHRH analog #5, [D-Ala^2, D-Tyr^10, D-Ala^15, Lys^22] hGHRH(1-29)-NH2] (H-Y[dA]DAIFTNS[dY]RKVL[dA]QLSARKKLQDIMSR-NH2)
- Median FFM (BIA, day 7): 50.4 kg
- Median FM (BIA, day 7): 13.3 kg
- Median FFM (BIA, day 14): 50.8 kg
- Median FM (BIA, day 14): 13.4 kg
- Median FFM (BIA, day 21): 50.1 kg
- Median FM (BIA, day 21): 12.6 kg
- Decrease from baseline in median FM (BIA, day 28): 1.8 kg
- Increase from baseline in median FFM (BIA, day 28): 3.3 kg
- Increase in median BMR from baseline (BIA, day 28): 49 kcal
- Basal metabolic rate: median (Baseline): 1441 kcal
- Body cell mass: median (Baseline): 23 kg and 23.0 kg
- Extracellular cell mass: median (Baseline): 23.5 kg
- Extracellular water: median (Baseline): 17.7 L
- Intracellular water: median (Baseline): 17.0 L
- Total body water: median (Baseline): 35.8 L
- Basal metabolic rate: median (Day 28): 1473 kcal
- Body cell mass: median (Day 28): 22.6 kg
- Extracellular cell mass: median (Day 28): 24.7 kg
- Extracellular water: median (Day 28): 19.1 L
- Intracellular water: median (Day 28): 15.8 L
- Total body water: median (Day 28): 38.1 L
- Ratio of median ECW/ICW (baseline): 1.04
- Fat free mass (%): median (Baseline): 75.3%
- Fat free mass (kg): median (Baseline): 48.8 kg
- Fat mass (%): median (Baseline): 24.7%
- Fat mass (kg): median (Baseline): 16.0 kg
- Fat mass (kg): median (Baseline, listed as GHRH(1-29)NH2 synthetic analog): 16 kg
- Fat free mass (%): median (Day 28): 78.6%
- Fat free mass (kg): median (Day 28): 51.1 kg
- Fat mass (%): median (Day 28): 21.4%
- Fat mass (kg): median (Day 28): 12.2 kg
- Median BCM (day 7): 25.1 kg
- Median ECM (day 7): 24.4 kg
- Median increase in BCM from baseline (day 7): 1.3 kg
- Median increase in ECM from baseline (day 7): 0.8 kg
- Median BCM (day 14): 24.3 kg
- Median ECM (day 14): 25.4 kg
- Median BCM (day 21): 23.2 kg
- Median ECM (day 21): 25.9 kg
- Increase in median ECW from baseline (day 28): 1.9 L
- Increase in median ICW from baseline (day 28): 1.2 L
- Increase in median total body water from baseline (day 28): 3 L
- Median increase in BCM from baseline (day 28): 1.8 kg
- Median increase in ECM from baseline (day 28): 1.7 kg
- Ratio of median ECW/ICW (day 28): 1.2

Reference: patent US20090088380A1, “GHRH ANALOGS AND THERAPEUTIC USES THEREOF” (priority 2007, published 2009)
